Measured values published in patent US20020115728A1, “Compositions and methods for treating cardiovascular disorders” (priority 2000, published 2002).
Where two headings read alike, the source gives them in different places. Marks after values point to notes of the source that are not given here.

How the values were obtained:
[1] = tested on: ballooned New Zealand White rabbits; assay: Re-endothelialization in cholesterol-fed and normal chow fed ballooned rabbits; assay type: in vivo
Source text: Results are from two separate experiments and represent mean±SD of six (cholesterol diet) and five animals (normal diet) per group. Asterisk indicates statistically significant higher values compared with corresponding controls, with p-values of 0.002, 0.015 and 0.025 for *, ** and * respectively.

[2] = Probucol and metabolite levels in aorta and plasma; assay type: in vivo; settings: apoE−/− mice, 1% probucol, 24 weeks
Procedure: Male C57BL/6J mice, homozygous for the disrupted apoE gene (apoE−/−) were fed standard chow (Lab-Feed, Sydney, Australia) until aged 10 weeks.
Lipid-soluble antioxidants and lipids were quantified by HPLC as described in FASEB J. 1999;13:667-675. For ascorbate analysis, frozen acidified samples were thawed, diluted with DPBS to adjust the pH to 7.4 and then immediately subjected to HPLC. Plasma triglycerides were determined enzymatically (Boehringer, Mannheim, Germany).
Pooled aortas were snap frozen in liquid nitrogen, pulverised, resuspended in Buffer A, homogenised and then either treated with metaphosphoric acid (for ascorbate) or extracted and the hexane fraction analysed for lipid-soluble antioxidants, cholesterol (C), choleseteryl esters (CE), lipid hydroperoxides (LOOH) and cholesteryl ester hydroxides (CE-OH) by HPLC as described in Methods Enzymol. 1994;233:469-489. LOOH and CE-OH were measured as markers of lipoprotein lipid oxidation, as they are the primary and major oxidation products formed when lipoproteins from apoE−/− mice undergo oxidation. […] All compounds were quantified by peak area comparison with authentic standards, and protein determined.

[3] = tested on: atherosclerosis in apoE−/−;LDLr−/− mice; assay: Evaluation of atherosclerosis (intima volume, descending thoracic aorta); assay type: in vivo; settings: bisphenol for 14 weeks
Procedure: Aortic lesions were assessed in segments centered around the third pair of intercostal artery branches in the descending thoracic aorta. Briefly, the fixed aortas were dehydrated in ethanol, cleared with xylene and embedded in paraffin. Serial sections (10 in total; each 2-3 μm thick and 100 μm apart) were cut and stained using Weigerts hematoxylin-van Gieson. Aortic thickening was assessed as the total volume of intima in the segment investigated in bisphenol-treated versus control samples.
Aortic volumes were determined by planimetry, using a Lucivid device (MicroBrightField, Colchester, Vermont, […]) attached to a Leitz DRM microscope that allowed the superposition of a computer monitor onto the cross sectional image.

[4] = Plasma drug level of bisphenol; assay type: in vivo, mice; settings: for concentration at 14 weeks: male, apoE−/−;LDLr−/−, mouse, plasma, oral, 0.03 % (w/w) in chow, mice ranked by plasma drug level
Procedure: Male apoE−/−;LDLr−/− mice (59 total), were maintained on standard R3 chow from weaning to 8 weeks of age (young controls, n=9). Thereafter mice received R3 chow with (n=25) or without supplemented bisphenol (n=25) for an additional 14 weeks. Standard R3-mouse chow was fortified with bisphenol at 0.03% (w/w), a level of supplementation shown in pilot experiments to afford circulating concentrations of the drug of ˜200 μM, considered suitable to test the effect of the co-antioxidant on atherogenesis in this animal model. At 22 weeks of age 10 and 15 mice of each group were used for biochemical and histological analyses, respectively. Due to the small size, it was necessary to pool aortas to yield sufficient material for biochemical analyses.
Analyses of oxidised and non-oxidised lipids were carried out by RP-HPLC as described in Example 1 except that in some instances UV234 nm rather than post-column chemiluminescence detection was used to measure C18:2-OOH and the corresponding hydroxides (together referred to as CE-O(O)H) which show similar retention times under these chromatographic conditions. α-TQ, α-TOH, α-tocotrienol, D-isosascorbate and ascorbate were determined by HPLC with electrochemical detection. For oxidation of plasma, unesterified cholesterol (which remained non-oxidised in these experiments) was employed as internal standard for all polyunsaturated, lipid-soluble components analysed. Bisphenol and diphenoquinone were analysed by RP-HPLC: flow 1.5 mL/min, 100% solvent A (MeCN/MeOH/H20 10:10:3, v/v/v) for 0-15 min monitored at 270 nm, followed by 50% solvent A and B (MeCN/MeOH 1:1, v/v) for 15-22 min at 242 nm and then 100% B for 22-28 min at 420 nm. Bisphenol and diphenoquinone eluted at 9 and 27 min, respectively. All compounds were quantified by peak area comparison with authentic standards. […]
Unless otherwise stated lipid and antioxidant levels are expressed as pmol/mg protein. LH, lipid containing bisallylic hydrogens. §Values are expressed as nmol/mg protein. […]

[5] = tested on: plasma from apoE−/−;LDLr−/− mice; assay: Ex vivo plasma lipid peroxidation initiated by aqueous peroxyl radicals (AAPH); assay type: in vivo
Procedure: Pooled plasma obtained from at least 3 mice receiving control diet (circles) or diet supplemented with bisphenol (squares) were treated with 5 mM AAPH and incubated at 37° C. At the times indicted aliquots were removed and analysed for α-TOH (A) and CE-O(O)H (B). 100% α-TOH levels correspond to 28±3 and 20±2 μM for control and H 212/43 plasma, respectively. Data represents the mean±SD (n=4 independent experiments).
Oxidation of plasma, pooled from=3 mice was carried out by addition of the peroxyl radical generator (final concentrations 5 mM) and incubating the reaction mixture at 37° C. under air. Aliquots (50 μL) of the reaction mixture were removed, extracted in methanol/hexane (1:5, v/v), and the consumption of antioxidants and accumulation of lipid oxidation products determined.

[6] = 2% Cholesterol-fed ballooned rabbits
[7] = Normal Chow fed ballooned rabbits
[8] = pooled plasma of bisphenol-treated mice, 5 mM AAPH, 37° C., 12 h

drug metabolised to bisphenol or diphenoquinone, aorta ([2]; aorta) | drug converted into bisphenol or diphenoquinone, plasma ([2]; plasma) | circulating concentrations of the drug, pilot experiments ([4]; chow fortified with bisphenol at 0.03% (w/w)) | concentration at 14 weeks ([4]; Bisphenol [high] aorta pool, read-out: plasma concentration of bisphenol, high group) | concentration at 14 weeks ([4]; Bisphenol [low] aorta pool, read-out: plasma concentration of bisphenol, low group) | SMILES | Re-endothelialized area, Abdominal Aorta [1, 6] | Re-endothelialized area, Thoracic Aorta [1, 6] | Re-endothelialized area, Abdominal Aorta [1, 7] | Re-endothelialized area, Thoracic Aorta [1, 7] | lesion size (intimal volume, descending thoracic aorta) vs age-matched controls [3] | CE-OOH detected after 12 h of ex vivo oxidation [5, 8] | α-TOH after 12 h of ex vivo oxidation [5, 8] | 100% α-TOH level of plasma before oxidation ([5]; pooled plasma of mice receiving bisphenol diet)
~11% | ~8% |  |  |  | CC(C)(Sc1cc(C(C)(C)C)c(O)c(C(C)(C)C)c1)Sc1cc(C(C)(C)C)c(O)c(C(C)(C)C)c1 [Probucol, probucol] | 55.1 ± 7.1** % total surface area | 57.3 ± 5.1* % total surface area | 48.2 ± 9.0*** % total surface area | 50.4 ± 6.4** % total surface area |  |  |  | 
 |  | ~200 µM | 212 ± 50 µM | 106 ± 40 µM | CC(C)(C)c1cc(-c2cc(C(C)(C)C)c(O)c(C(C)(C)C)c2)cc(C(C)(C)C)c1O [Bisphenol, bisphenol] |  |  |  |  | substantially decreased | < 1 µM | remained unaltered | 20 ± 2 µM
